# Results: patent publication US10858351B2, “Substituted tetrahydropyridine derivatives as IDO-1 inhibitors and uses thereof” (Alberta Research Chemicals Inc., priority 2017, dated 2020)
# What was measured:
# Assay type in all cases: cell-based
# [1] = target: T1, Human IDO-1 (Homo sapiens, UniProt P14902); test: IDO Kynurenine Assay with Human IDO1/HEK293 cells (Basal L-Kynurenine readout); conditions: HEK Human IDO-1; for inhibition at 10 µM: HEK293, Primary SP, 10 μM compound, read-out: Basal_L-Kynurenine (IDO1 % inhib @ 10 μM); for IC50: Primary CRC, read-out: Basal_L-Kynurenine IDO1 Rel IC50
# T1 sequence (P14902 whole entry): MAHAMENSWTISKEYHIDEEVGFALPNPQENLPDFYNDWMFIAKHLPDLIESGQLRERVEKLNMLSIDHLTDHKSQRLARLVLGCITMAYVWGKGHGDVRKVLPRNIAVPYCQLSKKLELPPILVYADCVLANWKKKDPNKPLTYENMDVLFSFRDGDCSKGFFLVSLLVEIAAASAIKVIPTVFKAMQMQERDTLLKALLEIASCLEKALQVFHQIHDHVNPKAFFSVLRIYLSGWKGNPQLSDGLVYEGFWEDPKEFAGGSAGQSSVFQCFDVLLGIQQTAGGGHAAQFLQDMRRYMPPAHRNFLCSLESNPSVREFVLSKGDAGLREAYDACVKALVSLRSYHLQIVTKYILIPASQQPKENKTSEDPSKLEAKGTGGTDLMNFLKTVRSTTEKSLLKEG
# Description: (§1) Compounds described in the Examples above were tested for inhibition of IDO activity with IDO Kynurenine Assay with Human ID01/HEK293 Cells.
# (§2) Human ID01/HEK293 cells were seeded at 10,000 cells per 50 μL per well with RP Ml/phenol red free media containing 10% FBS in a 384-well black wall clear bottom tissue culture plate (Matrix Technologies LLC). 125 nL of certain concentration of compound was then added to each well using ECHO liquid handling systems. The cells were incubated for 20 hours in 37° C. incubator with 5% CO2.
# The compound treatments were stopped by adding trichloroacetic acid (Sigma-Aldrich) to a final concentration at 0.2%. The cell plate was further incubated at 50° C. for 30 minute. The equal volume supernatant (20 μL) and 0.2% (w/v) Ehrlich reagent (4-dimethylaminobenzaldehyde, Sigma-Aldrich) in glacial acetic acid were mixed in a new clear bottom 384-well plate. This plate was then incubated at room temperature for 30 minute. The absorbance at 490 nm was measured on Envision plate reader.
# [2] = target: T1, Human IDO-1; test: HEK Human IDO-1 cells, Basal N-formyl-kynurenine readout; conditions: Primary CRC, read-out: Basal_N-formyl-kyn IDO1 Rel IC50
# Description: as §1, §2
# [3] = test system: Human ID01/HEK293 cells; test: HEK Human IDO-1 cells, Basal Viability; conditions: Primary CRC, HEK Human IDO-1 cell viability, read-out: Basal_Viability Rel IC50
# Description: as §2
Structure (SMILES),inhibition at 10 µM [1] [%],IC50 [1] [µM],IC50 [2] [µM],IC50 [3] [µM]
"CCNC(=O)Nc1cccc(CN2CC=C(c3cccc(N4CCOCC4)n3)CC2)c1 [Example 1, 1-Ethyl-3-[3-(6-morpholin-4-yl-3′,6′-dihydro-2′H-[2,4′]bipyridinyl-1′-ylmethyl)phenyl]urea]",> 90,< 2,< 2,> 50
"O=C(Nc1cccc(CN2CC=C(c3cccc(N4CCOCC4)n3)CC2)c1)NC1CCCCC1 [Example 2, 1-Cyclohexyl-3-[3-(6-morpholin-4-yl-3′,6′-dihydro-2′H-[2,4′]bipyridinyl-1′-ylmethyl)-phenyl]-urea]",> 90,< 2,< 2,> 50
"CCNC(=O)Nc1cccc(CN2CC=C(c3cccc(N4CCCCC4)n3)CC2)c1 [Example 4, 1-Ethyl-3-[3-(6-piperidine-1-yl-3′,6′-dihydro-2′H-[2,4′]bipyridinyl-1′-ylmethyl)-phenyl]-urea]",> 90,< 2,< 2,> 50
"O=C(Nc1cccc(CN2CC=C(c3cccc(N4CCCCC4)n3)CC2)c1)NC1CCCCC1 [Example 5, 1-Cyclohexyl-3-[3-(6-piperidine-1-yl-3′,6′-dihydro-2′H-[2,4′]bipyridinyl-1′-ylmethyl)-phenyl]-urea]",> 90,< 2,< 2,> 50
"O=C(Nc1cccc(CN2CC=C(c3cccc(N4CCCCC4)n3)CC2)c1)NC1CC1 [Example 6, 1-Cyclopropyl-3-[3-(6-piperidin-1-yl-3′,6′-dihydro-2′H-[2,4′]bipyridinyl-1′-ylmethyl)-phenyl]-urea]",> 90,< 2,< 2,> 50
"CCNC(=O)Nc1cccc(CN2CC=C(c3cccc(N4CCN(C)CC4)n3)CC2)c1 [Example 7, 1-Ethyl-3-{3-[6-(4-methyl-piperazin-1-yl)-3′,6′-dihydro-2′H-[2,4′]bipyridinyl-1′-ylmethyl]-phenyl}-urea]",< 90,> 2,> 2,> 50
"CN1CCN(c2cccc(C3=CCN(Cc4cccc(NC(=O)NC5CCCCC5)c4)CC3)n2)CC1 [Example 8, 1-Cyclohexyl-3-{3-[6-(4-methyl-piperazin-1-yl)-3′,6′-dihydro-2′H-[2,4′]bipyridinyl-1′-ylmethyl]-phenyl}-urea]",< 90,> 2,> 2,> 50
"CN1CCN(c2cccc(C3=CCN(Cc4cccc(NC(=O)NC5CC5)c4)CC3)n2)CC1 [Example 9, 1-Cyclopropyl-3-{3-[6-(4-methyl-piperazin-1-yl)-3′,6′-dihydro-2′H-[2,4′]bipyridinyl-1′-ylmethyl]-phenyl}-urea]",< 90,> 2,> 2,> 50
